Laboratory results taken from publication PMC8041284, “Tunable Methacrylamides for Covalent Ligand Directed Release Chemistry” (Journal of the American Chemical Society, 2021).
Read-outs that look alike come from different tables or passages of the source.

Assays:
BTK [1] = biological target: T1, BTK (Homo sapiens, UniProt Q06187)
BTK [2] = biological target: T1, BTK; experiment: biochemical; conditions: read-out: BTK inhibition (%), 0.75 uM BTK, […] probe 3l, 15 min preincubation
[3] = 0.75 uM BTK, […] probe 3l, 15 min preincubation; 10 µM; inhibitor
[4] = 0.75 uM BTK, […] probe 3l, 15 min preincubation, 10 µM, inhibitor, BTK inhibition (%)

T1 sequence (Q06187 402-655 limits assumed): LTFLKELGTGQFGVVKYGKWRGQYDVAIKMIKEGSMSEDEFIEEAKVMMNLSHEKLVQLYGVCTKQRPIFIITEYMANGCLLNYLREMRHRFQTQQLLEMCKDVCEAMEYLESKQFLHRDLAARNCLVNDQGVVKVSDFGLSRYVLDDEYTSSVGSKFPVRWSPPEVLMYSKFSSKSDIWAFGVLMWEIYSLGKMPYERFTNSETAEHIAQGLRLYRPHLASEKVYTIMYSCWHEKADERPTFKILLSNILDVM

| SMILES | BTK inhibition (%) (BTK [1]; [3]) | BTK inhibition (%) (BTK [1]; [4]) | further results |
| --- | --- | --- | --- |
| CC(C)[N+]1(C)[C@@H]2CC[C@H]1CC(OC(=O)C(CO)c1ccccc1)C2 (some centres unmarked) [PCM-0214646] | -24.9% |  |  |
| Cc1c(O)c(=O)ccn1C [PCM-0085974] |  | -30.4% |  |
| CN1C2CC(OC(=O)C(CO)c3ccccc3)CC1C(O)C2 (centres unmarked) [PCM-0216645] | 6.9% |  |  |
| O=c1ccc2cc3ccoc3c(O)c2o1 [PCM-0216446] | -6.2% |  |  |
| CC(C(=O)O)c1cccc(Oc2ccccc2)c1 (centres unmarked) [PCM-0214813] |  | 4.8% |  |
| Cc1cc(NS(=O)(=O)c2ccc(N)cc2)no1 [PCM-0085795] |  | -3.1% |  |
| C[C@@H]1O[C@@H]1P(=O)(O)O [PCM-0215255] |  | -21% |  |
| CCCCC(C#N)(Cn1cncn1)c1ccc(Cl)cc1 (centres unmarked) [PCM-0216598] | 3.1% |  |  |
| COC(=O)c1ccccc1C(=O)OC [PCM-0216149] | -9.3% |  |  |
| Nc1ncnc2c1ccn2[C@@H]1O[C@H](CO)[C@@H](O)[C@H]1O [PCM-0215658] |  |  | BTK inhibition (%) (BTK [1]; 10 µM; inhibitor): 10.8% |
| Cc1cc(NS(=O)(=O)c2ccc(N)cc2)no1 [PCM-0215124] |  | 7% |  |
| Cc1cc2c(C(C)C)c(O)c(O)c(C=O)c2c(O)c1-c1c(C)cc2c(C(C)C)c(O)c(O)c(C=O)c2c1O [PCM-0064881] | 75.5% |  |  |
| C[C@H]1CC[C@@H]2N(C1)C[C@H]1[C@@H]3C[C@H]4[C@@H](C[C@H](O)[C@H]5C[C@@H](O)CC[C@@]54C)[C@@H]3CC[C@@H]1[C@]2(C)O [PCM-0216522] |  |  | BTK inhibition (%) (BTK [1]; 10 µM; inhibitor): -15.4% |
| O=c1ccc2cc(O[C@@H]3O[C@H](CO)[C@@H](O)[C@H](O)[C@H]3O)c(O)cc2o1 [PCM-0091361] | 0% |  |  |
| CC[C@@]1(O)C(=O)OCc2c1cc1n(c2=O)Cc2cc3cc(O)ccc3nc2-1 [PCM-0094873] | -14% |  |  |
| O=C(O)C1C2CCC(O2)C1C(=O)O (centres unmarked) [PCM-0215947] | -7.7% |  |  |
| COc1ccc(C=O)cc1 [PCM-0216000] | 17% |  |  |
| C[C@H](O)[C@H](O)[C@@H](O)[C@@H](O)C=O [PCM-0094862] |  | -7.8% |  |
| C[N+](C)(C)CCCCCCCCCC[N+](C)(C)C [PCM-0065265] | 11.7% |  |  |
| CC(C)OC(=O)[C@H](C)N[P@](=O)(CO[C@H](C)Cn1cnc2c(N)ncnc21)Oc1ccccc1 [PCM-0215482] | -3.1% |  |  |
| c1cc2c(cc1[C@H]1OC[C@H]3[C@@H]1CO[C@H]3c1ccc3c(c1)OCO3)OCO2 [PCM-0216178] | 29.3% |  |  |
| CC1=C2C(=O)[C@H]3[C@@H](CC=C4C[C@@H](O)CC[C@@]43C)[C@@H]2CC[C@]12O[C@@H]1C[C@H](C)CN[C@H]1[C@H]2C [PCM-0214856] |  |  | BTK inhibition (%) (BTK [1]; 10 µM; inhibitor): -12.5% |
| Cc1cc(C(C#N)c2ccc(Cl)cc2)c(Cl)cc1NC(=O)c1cc(I)cc(I)c1O (centres unmarked) [PCM-0086145] | 20.2% |  |  |
| CC[C@H]1OC(=O)[C@H](C)[C@@H](O[C@H]2C[C@@](C)(OC)[C@@H](O)[C@H](C)O2)[C@H](C)[C@@H](O[C@@H]2O[C@H](C)C[C@H](N(C)C)[C@H]2O)[C@](C)(O)C[C@@H](C)C(=O)[C@H](C)[C@@H](O)[C@]1(C)O [PCM-0214693] |  | 5.4% |  |

| SMILES | BTK inhibition (%) (BTK [1]; [3]) | BTK inhibition (%) (BTK [1]; [4]) | further results |
| --- | --- | --- | --- |
| Nc1ccc(S(=O)(=O)Nc2ncccn2)cc1 [PCM-0214831] |  | 10.9% |  |
| O=C(O)O [PCM-0216262] |  | -6.2% |  |
| COc1ccc(C(CN(C)C)C2(O)CCCCC2)cc1 (centres unmarked) [PCM-0065195] | 6.2% |  |  |
| N[C@@H](C=O)[C@@H](O)[C@H](O)[C@H](O)CO [PCM-0215073] |  | -2.8% |  |
| C=C(C)[C@H]1Cc2c(ccc3c2O[C@@H]2COc4cc(OC)c(OC)cc4[C@@H]2C3=O)O1 [PCM-0214933] | 6.2% |  |  |
| CCN(C)C(=O)Oc1cccc([C@H](C)N(C)C)c1 [PCM-0086345] | 1.6% |  |  |
| C=C[C@@H]1C2=CCOC(=O)C2=CO[C@H]1O[C@@H]1O[C@H](CO)[C@@H](O)[C@H](O)[C@H]1O [PCM-0214971] | -0.8% |  |  |
| COc1cc(NS(=O)(=O)c2ccc(N)cc2)nc(OC)n1 [PCM-0086362] |  | -7.8% |  |
| C[C@H](O)[C@H](O)[C@@H](O)[C@@H](O)C=O [PCM-0214991] |  | -11.7% |  |
| COc1ccc(C[C@@H](C)NC[C@H](O)c2ccc(O)c(NC=O)c2)cc1 [PCM-0216637] |  | 6.9% |  |
| CN1[C@@H]2CC[C@H]1CC(OC(=O)c1c[nH]c3ccccc13)C2 (some centres unmarked) [PCM-0086109] |  | -11.7% |  |
| C[C@H]1CCC2N(C1)C[C@H]1C3CC4[C@@H](CC(=O)C5C[C@@H](O)CC[C@@]54C)C3CCC1[C@]2(C)O (some centres unmarked) [PCM-0216425] |  |  | BTK inhibition (%) (BTK [1]; 10 µM; inhibitor): -17.8% |
| Cc1cc(C)nc(NS(=O)(=O)c2ccc(N)cc2)n1 [PCM-0086513] |  | -23.3% |  |
| CC(C)=CCC[C@]1(C)C=Cc2c(O)c3c(c(CC=C(C)C)c2O1)O[C@]12C(=C[C@@H]4C[C@H]1C(C)(C)O[C@@]2(C/C=C(/C)C(=O)O)C4=O)C3=O [PCM-0214728] | -1.6% |  |  |
| c1c2c(cc3c1OCO3)-c1cc3ccc4c(c3c[n+]1CC2)OCO4 [PCM-0216022] | -46.8% |  |  |
| C1CCN2C[C@H]3C[C@H](CN4CCCC[C@@H]34)[C@H]2C1 [PCM-0216422] | 6.9% |  |  |
| CC(C)[C@]12O[C@H]1[C@@H]1O[C@]13[C@]1(O[C@H]1C[C@H]1C4=C(CC[C@@]13C)C(=O)OC4)[C@@H]2O [PCM-0214731] | 6.2% |  |  |
| COc1cc(NS(=O)(=O)c2ccc(N)cc2)nc(OC)n1 [PCM-0216005] |  | -11.6% |  |
| CN1CCN(C(=O)C2C3CCC(O3)C2C(=O)O)CC1 (centres unmarked) [PCM-0215448] | -11.1% |  |  |
| COC1=C[C@@H]2[C@@H]3Cc4ccc(OC)c(O)c4[C@]2(CCN3C)CC1=O [PCM-0214970] |  |  | BTK inhibition (%) (BTK [1]; 10 µM, inhibitor): 0% |
| CC(C)c1ccc(C=O)cc1 [PCM-0216001] | -18.5% |  |  |
| C[C@@H]1O[C@@H](O[C@H]2C[C@@H](O)[C@]3(CO)[C@H]4[C@H](O)C[C@]5(C)[C@@H](C6=CC(=O)OC6)CC[C@]5(O)[C@@H]4CC[C@]3(O)C2)[C@H](O)[C@H](O)[C@H]1O [PCM-0214805] | -5.4% |  |  |
| N[C@@H](C=O)[C@@H](O)[C@H](O)[C@H](O)CO [PCM-0214928] |  | -6.2% |  |
| CC(=O)OC(C)(C)/C=C/C(=O)[C@](C)(O)[C@H]1[C@H](O)C[C@@]2(C)[C@@H]3CC=C4[C@@H](C[C@H](O)C(=O)C4(C)C)[C@]3(C)C(=O)C[C@]12C [PCM-0214542] |  |  | BTK inhibition (%) (BTK [1]; 10 µM; inhibitor): -10% |

| SMILES | BTK inhibition (%) (BTK [1]; [3]) | BTK inhibition (%) (BTK [1]; [4]) | further results |
| --- | --- | --- | --- |
| C[C@H]1CCCC(=O)CCC/C=C/c2cc(O)cc(O)c2C(=O)O1 [PCM-0216639] |  |  | BTK inhibition (%) (BTK [1]; 10 µM; inhibitor): 10.8% |
| C=C[C@]1(C)C[C@@H](OC(=O)CSCCN(CC)CC)[C@]2(C)[C@H](C)CC[C@]3(CCC(=O)[C@H]32)[C@@H](C)[C@@H]1O [PCM-0216045] |  | 0% |  |
| CO/N=C(\C(=O)N[C@@H]1C(=O)N2C(C(=O)O)=C(CSC(=O)c3ccco3)CS[C@H]12)c1csc(N)n1 [PCM-0214692] |  | 0% |  |
| C[C@@H]1O[C@@H]1P(=O)(O)O [PCM-0216062] |  | -39.1% |  |
| COc1ccc(/C=C/c2cc(OC)cc(OC)c2)cc1 [PCM-0214992] |  |  | BTK inhibition (%) (BTK [1]; 10 µM; inhibitor): 34.2% |
| C/C=C(/C)C(=O)O[C@H]1[C@@H](OC(C)=O)c2c(ccc3ccc(=O)oc23)OC1(C)C [PCM-0216546] |  | -14.7% |  |
| O=C(O)O [PCM-0216036] |  | 4.3% |  |
| O=C1O[C@H]([C@@H](O)CO)C(O)=C1O [PCM-0215215] |  | -6.8% |  |
| CC[C@H]1OC(=O)[C@H](C)[C@@H](O[C@H]2C[C@@](C)(OC)[C@@H](O)[C@H](C)O2)[C@H](C)[C@@H](O[C@@H]2O[C@H](C)C[C@H](N(C)C)[C@H]2O)[C@](C)(O)C[C@@H](C)CN(C)[C@H](C)[C@@H](O)[C@]1(C)O [PCM-0214754] |  | 1.6% |  |
| CN(C)C(=O)Oc1ccc[n+](C)c1 [PCM-0065636] | -25.7% |  |  |
| CCNc1nc(Cl)nc(NC(C)C)n1 [PCM-0215964] | 3.9% |  |  |
| O=Cc1ccc(CO)o1 [PCM-0216119] |  |  | inhibition at 10 µM (BTK [2]): -2.3% |
| CCC(=O)O[C@]1(C(=O)SCF)[C@H](C)C[C@H]2[C@@H]3C[C@H](F)C4=CC(=O)C=C[C@]4(C)[C@@]3(F)[C@@H](O)C[C@@]21C [PCM-0214707] |  |  | inhibition at 10 µM (BTK [2]): 15.2% |
| C[C@@H]1O[C@@H](O[C@H]2[C@H](O[C@H]3CC[C@@]4(C)[C@@H](CC[C@]5(C)[C@@H]4CC=C4[C@@H]6CC(C)(C)CC[C@]6(C(=O)O[C@@H]6O[C@H](CO[C@@H]7O[C@H](CO)[C@@H](O)[C@H](O)[C@H]7O)[C@@H](O)[C@H](O)[C@H]6O)CC[C@]45C)[C@]3(C)CO)OC[C@H](O)[C@@H]2O)[C@H](O)[C@H](O)[C@H]1O [PCM-0216342] |  |  | inhibition at 10 µM (BTK [2]): -25.5% |
| CC(COc1ccccc1)N(CCCl)Cc1ccccc1 (centres unmarked) [PCM-0086553] |  |  | inhibition at 10 µM (BTK [2]): 17.1% |
| Cc1ccc(NCCN(C)CCNc2ccnc3cc(Cl)ccc23)c2c(=O)c3ccccc3sc12 [PCM-0215874] |  |  | inhibition at 10 µM (BTK [2]): 6.8% |
| CC(C)=CCC[C@](C)(O)[C@H]1CC[C@]2(C)[C@@H]1[C@H](O)C[C@@H]1[C@@]3(C)CC[C@H](O[C@@H]4O[C@H](CO)[C@@H](O)[C@H](O)[C@H]4O)C(C)(C)[C@@H]3CC[C@]12C [PCM-0216344] |  |  | inhibition at 10 µM (BTK [2]): 7.7% |
| COc1ccc(-c2oc3c(CC=C(C)C)c(O[C@@H]4C[C@H](CO)[C@@H](O)[C@H](O)[C@H]4O)cc(O)c3c(=O)c2O[C@@H]2O[C@@H](C)[C@H](O)[C@@H](O)[C@H]2O[C@@H]2O[C@H](CO)[C@@H](O)[C@H](O)[C@H]2O)cc1 [PCM-0216510] |  |  | inhibition at 10 µM (BTK [2]): -15.4% |
| O=C(Nc1ccccc1)c1cc([N+](=O)[O-])ccc1Cl [PCM-0065623] |  |  | inhibition at 10 µM (BTK [2]): 0.8% |
| COc1ccc(/C=C/C(=O)Nc2ccccc2C(=O)O)cc1OC [PCM-0065010] |  |  | inhibition at 10 µM (BTK [2]): 13.8% |
| CNC[C@H](O)c1ccc(O)c(O)c1 [PCM-0065121] |  |  | inhibition at 10 µM (BTK [2]): -9.3% |
| COC(=O)Nc1nc2ccc(Sc3ccccc3)cc2[nH]1 [PCM-0085863] |  |  | inhibition at 10 µM (BTK [2]): -7% |
| CN1C(=O)CCS(=O)(=O)C1c1ccc(Cl)cc1 (centres unmarked) [PCM-0065261] |  |  | inhibition at 10 µM (BTK [2]): -14% |
